In publication PMC12044245 (Emerging Infectious Diseases, 2025):

Assays:
Format in all cases: biochemical
[1] = target: NA (neuraminidase) of A/Yamagata/122/2023 (Influenza A virus, UniProt C3W5S3)
[2] = target: NA (neuraminidase) of A/Yamagata/127/2023 (Influenza A virus, UniProt C3W5S3)
[3] = target: NA (neuraminidase) of A/Yamagata/135/2023 (Influenza A virus, UniProt C3W5S3)
[4] = target: NA (neuraminidase) of A/Yamagata/177/2023 (Influenza A virus, UniProt C3W5S3)
[5] = target: NA (neuraminidase) of A/Yamagata/292/2023 (Influenza A virus, UniProt C3W5S3)
[6] = target: NA (neuraminidase) of A/Yamagata/312/2023 (Influenza A virus, UniProt C3W5S3)
[7] = target: NA (neuraminidase) of A/Yamagata/336/2023 (Influenza A virus, UniProt C3W5S3)
[8] = target: NA (neuraminidase) of A/Yamagata/104/2024 (Influenza A virus, UniProt C3W5S3)

CCC(CC)[C@H](NC(C)=O)[C@@H]1[C@H](O)[C@@H](C(=O)O)C[C@H]1N=C(N)N [Peramivir, peramivir]
IC50 [1]: 0.08 nM
IC50 [2]: 0.08 nM
IC50 [3]: 0.08 nM
IC50 [4]: 0.06 nM
IC50 [5]: 0.09 nM
IC50 [6]: 0.11 nM
IC50 [7]: 0.09 nM
IC50 [8]: 0.09 nM
